We go through one compound from PMC10221314 (Pharmaceuticals, 2023).

The structures appear in SMILES notation.

Common to all, as to type: cell-based
In one assay the target is T1, FXR (Homo sapiens, UniProt Q96RI1).
T1 construct: a fusion plasmid of Gal4 DBD-NR-LBD, which included PPARα, PPARβ, PPARγ, RXRα, RXRβ, RXRγ, LXRα, LXRβ, GPBAR, PXR, and FXR; expressed in transfected cells; host or cells: HEK-293T
T1 sequence (Q96RI1 262-486 limits assumed): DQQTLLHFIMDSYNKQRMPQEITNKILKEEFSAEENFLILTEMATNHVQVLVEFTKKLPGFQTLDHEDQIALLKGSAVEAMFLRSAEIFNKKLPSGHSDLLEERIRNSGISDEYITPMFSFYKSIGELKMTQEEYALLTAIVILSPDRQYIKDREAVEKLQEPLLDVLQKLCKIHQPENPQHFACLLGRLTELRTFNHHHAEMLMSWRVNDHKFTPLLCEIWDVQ
In words: Yeast one-hybrid assay of FXR antagonistic activity in HEK-293T cells. The protocol: Cell counting: HEK-293T cells in logarithmic growth phase were digested with 0.25% trypsin, collected, and centrifuged. The trypsin-containing medium was discarded, and 2 mL of fresh phenol red-free DMEM medium containing 5% fetal bovine serum was added. The cells were then mixed with the medium to prepare a cell suspension and counted on a cell counting plate.
Cell plating: A determined number of cells were taken from the cell suspension, diluted with phenol red-free DMEM medium containing 5% fetal bovine serum, and plated at a concentration of 10,000 cells per well (100 µL medium) in a 96-well plate. The plate was then incubated at 37 °C and 5% CO2 for 24 h.
Cell transfection: Fresh phenol red-free DMEM medium was taken in a sterile environment, and the previously extracted pFXR-Binding plasmid and PG4.35[luc2P-9XGA4UAS-Hygro] plasmid were added. The mixture was stirred and allowed to stand at 23 °C for 3 min. Then, a 3% amount of transfection reagent was added to the mixture, and it was allowed to stand at 23 °C for 15 min. The mixture was then added to the 96-well plate at a volume of 10 µL per well and incubated at 37 °C in a 5% CO2 environment for 24 h.
The OA derivatives were prepared as 10 mM DMSO stock solutions and further diluted in a concentration gradient, with 10 µL added to each well. The final concentrations of the derivatives ranged from 10 µM to 0.03 µM, with 7 concentration gradients using […] dilution. The test was set with 3 duplicated wells.
Antagonism activity test: The firefly-Renilla Dual Fluorescence Assay Kit (Promega, #E2940, Madison, WI, USA) was used to measure the antagonism activity of the OA derivatives. Firstly, the firefly fluorescence reagent was added to the 96-well plate at a volume of 70 µL per well and shaken in darkness for 15 min. Then, the fluorescence intensity was measured at a wavelength of 645 ± 30 nm in a microplate reader (BioTek, Winooski, VT, USA). Next, the volume of Renilla reagent was added to the 96-well plate at a volume of 70 µL per well and shaken in darkness for 15 min. The fluorescence intensity was then measured at a wavelength of 525 ± 20 nm.
Data processing: The fluorescence data of firefly were divided by the fluorescence data of Renilla to remove errors, and the antagonism efficiency was calculated using the following formula: antagonism efficiency (%) = [1 − (FCompds. − FDMSO)/(FCDCA − FDMSO)] × 100%. In the formula, F represents fluorescence intensity. The antagonistic efficiency data were obtained as a concentration–effect curve using Graphpad Prism 8.0 software, and the corresponding IC50 value was calculated.

In the next assay the target is T2, LXRα (Homo sapiens, UniProt Q13133).
T2 construct: a fusion plasmid of Gal4 DBD-NR LBD (comprising RXRα, RXRβ, RXRγ, PPARα, PPARβ, PPARγ, LXRα, LXRβ, GPBAR, and PXR); expressed in transfected cells; host or cells: HEK-293T
T2 sequence (Q13133 209-447 limits assumed): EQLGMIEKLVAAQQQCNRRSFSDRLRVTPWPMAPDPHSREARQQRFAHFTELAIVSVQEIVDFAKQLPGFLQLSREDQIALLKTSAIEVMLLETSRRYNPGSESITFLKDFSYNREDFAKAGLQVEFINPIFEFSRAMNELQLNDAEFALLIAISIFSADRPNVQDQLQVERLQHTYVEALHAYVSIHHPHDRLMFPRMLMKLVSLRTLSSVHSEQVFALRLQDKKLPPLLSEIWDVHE
Put plainly: NR selectivity one-hybrid assay in HEK-293T cells (LXRα). The following applies: activated by GW3965. The protocol: (§1) To assess the compound’s specificity, the mammalian one-hybrid assay was conducted. In this assay, HEK-293T cells were co-transfected with a fusion plasmid of Gal4 DBD-NR LBD (comprising RXRα, RXRβ, RXRγ, PPARα, PPARβ, PPARγ, LXRα, LXRβ, GPBAR, and PXR) and the UAS-TK-Luc reporter, followed by treatment with various concentrations of the compound. The positive control consisted of the corresponding nuclear receptor agonist, and the concentration used in the experiment was set to the EC50 of the agonist.
(§2) Figure 3 Compound 10b selectively antagonized FXR. The impact of compound 10b on various NRs was evaluated using a […] one-hybrid assay in HEK-293T cells. The cells were transiently co-transfected with a fusion plasmid of Gal4 DBD-NR-LBD, which included PPARα, PPARβ, PPARγ, RXRα, RXRβ, RXRγ, LXRα, LXRβ, GPBAR, PXR, and FXR, in combination with the UAS-TK-Luc reporter. […] The values are expressed as the means ± SE of three independent experiments. *: p < 0.05 vs. RA (relative agonist).

Another assay concerns the target T3, PPARα (Homo sapiens, UniProt Q07869).
T3 construct: a fusion plasmid of Gal4 DBD-NR LBD (comprising RXRα, RXRβ, RXRγ, PPARα, PPARβ, PPARγ, LXRα, LXRβ, GPBAR, and PXR); expressed in transfected cells; host or cells: HEK-293T
T3 sequence (Q07869 239-466 limits assumed): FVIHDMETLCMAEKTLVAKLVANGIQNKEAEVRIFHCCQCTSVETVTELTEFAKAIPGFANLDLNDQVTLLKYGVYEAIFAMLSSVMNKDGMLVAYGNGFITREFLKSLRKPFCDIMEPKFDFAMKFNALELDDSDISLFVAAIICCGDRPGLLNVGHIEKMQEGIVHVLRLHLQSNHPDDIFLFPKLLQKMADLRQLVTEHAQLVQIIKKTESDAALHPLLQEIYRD
Put plainly: NR selectivity one-hybrid assay in HEK-293T cells (PPARα). As to conditions: activated by fenofibrate. The protocol: as §1, §2

On FXR (HEK-293T cells, CDCA (50 μM) as agonist, mean ± SE of three independent tests), `CC1(C)CCC2(C(=O)O)CCC3(C)C(C(OC(=O)CCC(NC(=O)OC(C)(C)C)C(=O)OC(C)(C)C)CC4C5(C)CCC(O)C(C)(C)C5CCC43C)C2C1` [Compound 10b, 3β-hydroxy-12β-(4′-((tert-butoxycarbonyl)amide)-5′-(tert-butoxy)-L-glutamte)oxy-13H-olean-28-oic acid] returned a 50% inhibitory concentration (IC50) of 0.44 ± 0.15 µM. In addition, the “times more potent than 10d” value on FXR (ratio of IC50 values) is recorded as 8.3. Also, the “antagonistic effects against LXRα” value at LXRα is listed as 10–20%. Moreover, on PPARα, the “antagonistic effects against PPARα” value is listed as 10–20%.
